This note sets out measurements from ChEMBL document CHEMBL4038286, “Synthesis of camphecene derivatives using click chemistry methodology and study of their antiviral activity” (Bioorg Med Chem Lett, 2017).

The structures appear in SMILES notation.

This experiment deals with Influenza A virus. In words: Antiviral activity against rimantadine-resistant Influenza A virus (A/Puerto Rico/8/34(H1N1)) infected in MDCK cells. In kind it is functional, A/Puerto Rico/8/1934(H1N1). Conditions: read-out: ED50 (the source's name).
On to `CCOC(=O)C(C)(Cc1cn(CC/N=C2\C[C@H]3CC[C@]2(C)C3(C)C)nn1)P(=O)(OCC)OCC` (stereo not given in full), for which the EC50 worked out at 314 µM. As for `CC(C)(C)OC(=O)Cn1cc(COCC/N=C2\C[C@H]3CC[C@]2(C)C3(C)C)nn1`, the EC50 was determined as 24 µM. For `CC1(C)[C@@H]2CC[C@@]1(C)/C(=N/CCn1cc([Si](C)(C)C)nn1)C2`, the EC50 is > 31 µM.

For the compound `CC1(C)[C@@H]2CC[C@@]1(C)/C(=N/CCN=[N+]=[N-])C2`, the EC50 came out at 455 µM. Turning to `CC(C)(O)Cc1cn(CC/N=C2\C[C@H]3CC[C@]2(C)C3(C)C)nn1`, the EC50 was 32 µM. With `CCCCc1cn(CC/N=C2\C[C@H]3CC[C@]2(C)C3(C)C)nn1`, the EC50 was 56 µM. Consider `CC1(C)[C@@H]2CC[C@@]1(C)/C(=N\CCOCc1cn(CC/N=C3\C[C@H]4CC[C@]3(C)C4(C)C)nn1)C2`, for which the EC50 came out at 98 µM. The value for `CC1(C)[C@@H]2CC[C@@]1(C)/C(=N/CCOCc1cn(CCO)nn1)C2` was 50 µM. In the case of `CC1(C)[C@@H]2CC[C@@]1(C)/C(=N/CCn1cc(CCN3CCOCC3)nn1)C2`, the EC50 worked out at 45 µM. Take `C#CCOCC/N=C1\C[C@H]2CC[C@]1(C)C2(C)C`: the EC50 was > 429 µM.

Consider `CC(N)[C@@H]1C[C@H]2CC[C@]1(C)C2` (stereo not given in full), for which the EC50 stood at 181 µM. With `CNCc1cn(CC/N=C2\C[C@H]3CC[C@]2(C)C3(C)C)nn1`, the EC50 is > 100 µM.

Regarding `CCOP(=O)(OCC)C(Cc1cn(CC/N=C2\C[C@H]3CC[C@]2(C)C3(C)C)nn1)P(=O)(OCC)OCC`, the EC50 was > 58.4 µM. With `COCCNCCc1cn(CC/N=C2\C[C@H]3CC[C@]2(C)C3(C)C)nn1`, the EC50 was found to be 25 µM.

As for `CC(N)C12CC3CC(CC(C3)C1)C2` (stereo not given) [RIMANTADINE], the EC50 is 72 µM. `CC1(C)[C@@H]2CC[C@@]1(C)/C(=N/CCn1cc(CO)nn1)C2`: the EC50 was determined as 616 µM. To `NC12CC3CC(CC(C3)C1)C2` [AMANTADINE] belongs 60 µM.

For `CC1(C)[C@@H]2CC[C@@]1(C)/C(=N/CCOCc1cn(-c3ccccc3)nn1)C2`, the EC50 was 63 µM.

With `CCOP(=O)(CCCCn1cc(COCC/N=C2\C[C@H]3CC[C@]2(C)C3(C)C)nn1)OCC`, the EC50 amounted to 299 µM. To `CC1(C)[C@@H]2CC[C@@]1(C)/C(=N/CCn1cc(CCO)nn1)C2` belongs 55 µM.
